The record followed here is ChEMBL document CHEMBL1201862, “PubChem BioAssay data set” (2004).

Active and inactive are the calls of the source.

One experiment deals with Ion channel NompC (Danio rerio, UniProt Q7T1G6). As to the kind of experiment: Dose response cell-based high-throughput screening assay for agonists of the transient receptor potential channel N1 (TRPN1). [Related pubchem assays (depositor defined):AID1424, AID1448]. In kind it is functional.
For another experiment, the target named is Mucolipin-3 (Homo sapiens, UniProt Q8TDD5). The experiment is described as follows: Fluorescence counterscreen assay for […] agonists: dose response cell-based high-throughput screening assay to identify agonists of the transient receptor potential channel ML3 (TRPML3). [Related pubchem assays: 1424, 1448 ]. In kind it is functional.
Experiment [1] can be described thus: reduction of Shn3 3'UTR-driven luciferase in osteoblasts – cell-based, Clone20 osteoblasts, firefly luciferase, cherry-picked, dose response (AID 624132).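 Further: firefly luciferase luminescence from reporter carrying the Shn3 3'UTR in osteoblasts.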 In kind it is functional.
The nature of experiment [2]: loss of viability in HepG2 cells – cell-based, CellTiter-Glo, cherry-picked, cytotoxicity control for Shn3 inhibitor project, dose response (AID 624134). Format: functional. (In general: Cellular ATP, detected with luciferase, serves as a proxy for viable cell number.)
Experiment [3] is described as follows: non-specific 3'UTR reporter inhibition in Clone20-Shn3RL – cell-based, Renilla luciferase, cherry-picked, counter-screen for Shn3 inhibitor project, dose response (AID 624133). Format: functional. A general note: Counterscreens check selectivity or assay interference.
The target in experiment [4] is T1, Dual specificity protein phosphatase 6 (Rattus norvegicus, UniProt Q64346).
T1 sequence (Q64346 whole entry): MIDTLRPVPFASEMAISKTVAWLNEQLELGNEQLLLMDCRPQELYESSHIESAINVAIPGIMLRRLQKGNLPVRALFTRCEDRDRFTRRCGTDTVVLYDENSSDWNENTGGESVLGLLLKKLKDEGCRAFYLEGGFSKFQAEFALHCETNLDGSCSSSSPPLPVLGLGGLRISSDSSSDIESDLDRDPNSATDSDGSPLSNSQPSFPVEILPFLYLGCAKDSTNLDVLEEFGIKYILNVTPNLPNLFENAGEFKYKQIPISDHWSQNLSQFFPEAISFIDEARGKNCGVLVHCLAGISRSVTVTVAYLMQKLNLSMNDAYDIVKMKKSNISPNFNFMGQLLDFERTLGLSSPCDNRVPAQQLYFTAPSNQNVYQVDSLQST
As to the kind of experiment: inhibition of rat DUSP6 enzyme activity – biochemical, in vitro, primary screen (AID 425).

The target in experiment [5] is T2, Dual specificity protein phosphatase 3 (Homo sapiens, UniProt P51452). As to the kind of experiment: SAR VHR1 absorbance Assay for In Vitro dose response studies. [Related pubchem assays (depositor defined):AID1654, AID1661, AID1878, AID1992, AID2004].
Experiment [6] deals with T2, Dual specificity protein phosphatase 3. As to the kind of experiment: SAR VHR1 Fluorescent Assay for In Vitro dose response studies Set 2. [Related pubchem assays (depositor defined):AID1654, AID1661, AID1878]. In kind it is functional.
The target of experiment [7] is T3, Tyrosine-protein phosphatase non-receptor type 7 (Homo sapiens, UniProt P35236).
T3 sequence (P35236 whole entry): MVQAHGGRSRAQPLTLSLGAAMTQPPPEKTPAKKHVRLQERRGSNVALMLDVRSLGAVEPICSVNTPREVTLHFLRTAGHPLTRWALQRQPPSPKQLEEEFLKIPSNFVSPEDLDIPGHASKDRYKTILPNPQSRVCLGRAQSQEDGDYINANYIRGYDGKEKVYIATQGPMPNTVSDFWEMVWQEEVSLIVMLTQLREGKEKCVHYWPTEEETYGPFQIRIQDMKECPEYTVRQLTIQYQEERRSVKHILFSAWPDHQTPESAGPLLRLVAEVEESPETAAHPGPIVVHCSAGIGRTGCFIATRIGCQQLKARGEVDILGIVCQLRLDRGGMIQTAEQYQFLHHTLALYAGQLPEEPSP
As to the kind of experiment: redox-active compounds inhibiting HePTP phosphatase – biochemical, fluorescence, mechanism study (AID 2068). In kind it is functional.

In experiment [8] the target is T3, Tyrosine-protein phosphatase non-receptor type 7. As to the kind of experiment: SAR analysis of chemical inhibitors of HePTP using a Fluorescent assay - Set 2. [Related pubchem assays (depositor defined):AID1059, AID1077, AID1661, AID2085, AID521]. In kind it is functional.
The target of experiment [9] is Glucose-6-phosphate 1-dehydrogenase (Homo sapiens, UniProt P11413). As to the kind of experiment: inhibition of Homo sapiens G6PD, dose series – biochemical, fluorescence, selectivity assay for P. falciparum G6PD inhibitor project, dose response (AID 504792). Format: functional.
Experiment [10] concerns the target DNA dC->dU-editing enzyme APOBEC-3A (Homo sapiens, UniProt P31941). As to the kind of experiment: A3A deaminase inhibition for selectivity – biochemical, dose response (AID 504722). Format: functional.
For experiment [11], the target named is T1, Dual specificity protein phosphatase 6. In kind it is functional.
For experiment [12] the target is unchanged. As to the kind of experiment: SAR analysis of inhibitors of MKP-3 - Set 2. [Related pubchem assays (depositor defined):AID1055, AID1661, AID425, AID553, AID566]. Format: functional.
Experiment [13] deals with Peroxisome proliferator-activated receptor gamma/Nuclear receptor coactivator 2 (Homo sapiens, UniProt P37231). In kind it is functional.
The target of experiment [14] is T2, Dual specificity protein phosphatase 3. As to the kind of experiment: VHR1 phosphatase inhibitors, biochemical (AID 1878).
Experiment [15] has the same target. As to the kind of experiment: VHR1 phosphatase inhibitors, primary screen, biochemical, absorbance, uHTS (AID 1654).
Experiment [16] has the same target. As to the kind of experiment: SAR VHR1 Fluorescent Assay for In Vitro dose response studies. [Related pubchem assays (depositor defined):AID1654, AID1661, AID1878, AID1992, AID2004, AID2070, AID2085]. Format: functional.
Experiment [17] concerns the target Peroxisome proliferator-activated receptor gamma/Nuclear receptor coactivator 1 (Homo sapiens, UniProt P37231). Format: functional.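 Further: agonist potency as compounds enhance coactivator SRC-1 recruitment to PPARgamma.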
Experiment [18] addresses Peroxisome proliferator-activated receptor gamma/Nuclear receptor coactivator 3 (Homo sapiens, UniProt P37231). Format: functional.
In experiment [19] the target is DNA dC->dU-editing enzyme APOBEC-3G (Homo sapiens, UniProt Q9HC16). As to the kind of experiment: Dose Response confirmation of small molecule APOBEC3G DNA Deaminase Inhibitors via a fluorescence-based single-stranded DNA deaminase assay. [Related pubchem assays (depositor defined):AID493012, AID493028]. Format: functional.
Experiment [20] concerns the target T4, Cannabinoid receptor 2 (Homo sapiens, UniProt P34972). As to the kind of experiment: SAR analysis of agonists of the Cannabinoid Receptor 2 using an Image-Based Assay - Set 2. [Related pubchem assays (depositor defined):AID1961, AID1965]. In kind it is functional.
The target of experiment [21] is T5, G-protein coupled receptor 35 (Homo sapiens, UniProt Q9HC97). The experiment is described as follows: SAR analysis of Antagonists of the GPR35 Receptor using an Image-Based Assay - Set 4. [Related pubchem assays (depositor defined):[…]]. Format: functional.
The target in experiment [22] is G-protein coupled receptor 55 (Homo sapiens, UniProt Q9Y2T6). As to the kind of experiment: SAR analysis of selective Agonists of GPR55 using an Image-Based Assay - Set 2. [Related pubchem assays (depositor defined):AID1961, AID1965]. Format: functional.
In experiment [23] the target is T6, Cannabinoid receptor 1 (Homo sapiens, UniProt P21554). As to the kind of experiment: SAR analysis of antagonists of the Cannabinoid Receptor 1 using an Image-Based Assay - Set 3. [Related pubchem assays (depositor defined):AID1961, AID1965]. In kind it is functional.
The target of experiment [24] is T6, Cannabinoid receptor 1. The experiment is described as follows: SAR analysis of agonists of the Cannabinoid Receptor 1 using an Image-Based Assay - Set 3. [Related pubchem assays (depositor defined):AID1961, AID1965]. Format: functional.
For experiment [25], the target named is T5, G-protein coupled receptor 35. The experiment is described as follows: SAR analysis of Agonists of the GPR35 Receptor using an Image-Based Assay - Set 3. [Related pubchem assays (depositor defined):AID1961, AID1965]. Format: functional.
For experiment [26], the target named is T4, Cannabinoid receptor 2. The experiment is described as follows: SAR analysis of antagonists of the Cannabinoid Receptor 2 using an Image-Based Assay - Set 2. [Related pubchem assays (depositor defined):AID1961, AID1965]. Format: functional.
Experiment [27] has as its target Intestinal-type alkaline phosphatase (Mus musculus, UniProt P24822). The experiment is described as follows: PubChem AID 488785. In kind it is functional.
For experiment [28], the target named is Intestinal-type alkaline phosphatase (Homo sapiens, UniProt P09923). As to the kind of experiment: activation of human intestinal alkaline phosphatase – biochemical, dose response (AID 488873). In kind it is functional.
The target of experiment [29] is T7, Alkaline phosphatase, tissue-nonspecific isozyme (Homo sapiens, UniProt P05186).
T7 sequence (P05186 whole entry): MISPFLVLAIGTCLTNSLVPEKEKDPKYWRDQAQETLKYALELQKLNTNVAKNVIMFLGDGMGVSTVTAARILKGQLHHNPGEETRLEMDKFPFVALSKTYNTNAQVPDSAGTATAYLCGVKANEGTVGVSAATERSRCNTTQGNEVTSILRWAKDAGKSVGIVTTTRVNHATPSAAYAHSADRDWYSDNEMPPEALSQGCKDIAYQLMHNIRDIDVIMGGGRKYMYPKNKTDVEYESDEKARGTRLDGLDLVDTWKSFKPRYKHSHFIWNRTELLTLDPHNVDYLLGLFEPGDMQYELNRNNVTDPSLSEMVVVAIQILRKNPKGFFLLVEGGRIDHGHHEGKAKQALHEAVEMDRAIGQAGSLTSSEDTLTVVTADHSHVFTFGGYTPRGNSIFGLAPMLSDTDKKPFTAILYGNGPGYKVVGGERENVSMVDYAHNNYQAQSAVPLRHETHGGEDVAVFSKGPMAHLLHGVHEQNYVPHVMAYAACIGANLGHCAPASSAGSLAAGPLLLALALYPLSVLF
As to the kind of experiment: TNAP enzyme inhibition by screening hits, dose response, selectivity assay for mouse IAP inhibitor project, biochemical, human TNAP, uHTS hits (AID 488906). Format: functional.

In another experiment the target is Troponin, cardiac muscle (Homo sapiens, UniProt P19429+P45379+P63316). As to the kind of experiment: Fluorescence-based biochemical high throughput dose response assay for activators of the calcium sensitivity of cardiac Regulated Thin Filaments (RTF). [Related pubchem assays (depositor defined):AID493008, AID493018, AID504382, AID504383]. Format: protein-complex assay.

In experiment [30] the target is Kappa-type opioid receptor (Homo sapiens, UniProt P41145). As to the kind of experiment: SAR analysis of small molecule agonists of the kappa opioid receptor via a luminescent beta-arrestin assay - Set 3. [Related pubchem assays (depositor defined):AID1777, AID1785, AID1786, AID1966, AID2133, AID2136, AID2284, AID2500]. Format: functional.
The next experiment deals with Hexokinase HKDC1 (Homo sapiens, UniProt Q2TB90). As to the kind of experiment: activation of HKDC1 glucose phosphorylation – biochemical, W721R variant, dose response (AID 504730). Format: functional.
Another experiment has as its target Hexokinase-1 (Homo sapiens, UniProt P19367). As to the kind of experiment: HK1 enzyme activation by HKDC1 hits – biochemical, selectivity assay for HKDC1 activator project, dose response (AID 504762). In kind it is functional.

T2 sequence (P51452 whole entry): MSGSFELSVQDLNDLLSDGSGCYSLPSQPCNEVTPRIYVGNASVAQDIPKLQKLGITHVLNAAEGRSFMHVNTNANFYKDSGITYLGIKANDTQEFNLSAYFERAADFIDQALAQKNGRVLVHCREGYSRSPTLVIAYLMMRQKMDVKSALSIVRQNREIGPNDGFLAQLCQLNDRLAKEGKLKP
T5 sequence (Q9HC97 whole entry): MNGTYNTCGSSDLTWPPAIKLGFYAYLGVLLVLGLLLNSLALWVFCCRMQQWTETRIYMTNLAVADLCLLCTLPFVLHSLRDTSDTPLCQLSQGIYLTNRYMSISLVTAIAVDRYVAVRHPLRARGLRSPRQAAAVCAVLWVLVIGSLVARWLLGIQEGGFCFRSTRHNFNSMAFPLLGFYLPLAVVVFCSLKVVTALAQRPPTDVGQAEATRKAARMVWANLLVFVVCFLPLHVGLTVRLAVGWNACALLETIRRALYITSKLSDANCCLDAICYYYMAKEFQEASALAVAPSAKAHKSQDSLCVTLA
T4 sequence (P34972 whole entry): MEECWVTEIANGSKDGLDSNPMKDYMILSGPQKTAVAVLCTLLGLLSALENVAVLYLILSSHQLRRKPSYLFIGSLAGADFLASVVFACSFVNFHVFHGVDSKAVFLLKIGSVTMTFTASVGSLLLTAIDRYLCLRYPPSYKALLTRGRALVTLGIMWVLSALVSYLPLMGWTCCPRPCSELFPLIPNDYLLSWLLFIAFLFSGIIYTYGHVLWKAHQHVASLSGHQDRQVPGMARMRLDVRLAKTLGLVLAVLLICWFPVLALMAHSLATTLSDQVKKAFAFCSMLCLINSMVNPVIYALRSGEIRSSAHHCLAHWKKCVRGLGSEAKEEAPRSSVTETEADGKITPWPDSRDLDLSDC
T6 sequence (P21554 whole entry): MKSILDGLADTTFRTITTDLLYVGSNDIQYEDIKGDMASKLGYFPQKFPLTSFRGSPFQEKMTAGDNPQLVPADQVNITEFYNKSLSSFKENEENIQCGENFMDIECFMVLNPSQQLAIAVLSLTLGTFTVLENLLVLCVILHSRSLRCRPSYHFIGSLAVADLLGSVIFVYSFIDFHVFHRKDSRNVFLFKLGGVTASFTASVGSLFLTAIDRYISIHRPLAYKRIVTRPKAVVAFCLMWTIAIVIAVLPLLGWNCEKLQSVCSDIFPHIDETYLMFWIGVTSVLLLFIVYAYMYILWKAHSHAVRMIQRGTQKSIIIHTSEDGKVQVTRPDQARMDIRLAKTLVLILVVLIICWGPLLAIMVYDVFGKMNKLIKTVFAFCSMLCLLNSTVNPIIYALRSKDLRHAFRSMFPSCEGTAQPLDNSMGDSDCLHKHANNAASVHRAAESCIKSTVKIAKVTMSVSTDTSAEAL
Chain of G-protein coupled receptor 55 (Q9Y2T6 whole entry): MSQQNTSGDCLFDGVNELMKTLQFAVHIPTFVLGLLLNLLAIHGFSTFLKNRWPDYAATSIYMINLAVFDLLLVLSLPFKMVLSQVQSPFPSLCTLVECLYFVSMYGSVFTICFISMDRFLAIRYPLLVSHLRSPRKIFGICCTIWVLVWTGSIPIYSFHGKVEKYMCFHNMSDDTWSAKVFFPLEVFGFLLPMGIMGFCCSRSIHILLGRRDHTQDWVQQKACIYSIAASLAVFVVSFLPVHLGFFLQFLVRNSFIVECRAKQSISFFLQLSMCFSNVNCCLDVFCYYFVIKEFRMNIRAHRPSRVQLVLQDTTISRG
Chain of Kappa-type opioid receptor (P41145 whole entry): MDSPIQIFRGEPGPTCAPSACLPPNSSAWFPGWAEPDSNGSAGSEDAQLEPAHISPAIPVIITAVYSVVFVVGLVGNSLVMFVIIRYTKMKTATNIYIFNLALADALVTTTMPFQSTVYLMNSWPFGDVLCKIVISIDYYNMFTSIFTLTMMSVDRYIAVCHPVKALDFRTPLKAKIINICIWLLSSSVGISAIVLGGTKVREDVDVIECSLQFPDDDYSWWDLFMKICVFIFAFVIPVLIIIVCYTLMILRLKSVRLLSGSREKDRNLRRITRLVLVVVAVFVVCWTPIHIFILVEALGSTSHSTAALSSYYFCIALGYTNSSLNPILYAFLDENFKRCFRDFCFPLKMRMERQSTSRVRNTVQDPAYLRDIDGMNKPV
Chain of Intestinal-type alkaline phosphatase (Mus musculus, UniProt P24822) (P24822 whole entry): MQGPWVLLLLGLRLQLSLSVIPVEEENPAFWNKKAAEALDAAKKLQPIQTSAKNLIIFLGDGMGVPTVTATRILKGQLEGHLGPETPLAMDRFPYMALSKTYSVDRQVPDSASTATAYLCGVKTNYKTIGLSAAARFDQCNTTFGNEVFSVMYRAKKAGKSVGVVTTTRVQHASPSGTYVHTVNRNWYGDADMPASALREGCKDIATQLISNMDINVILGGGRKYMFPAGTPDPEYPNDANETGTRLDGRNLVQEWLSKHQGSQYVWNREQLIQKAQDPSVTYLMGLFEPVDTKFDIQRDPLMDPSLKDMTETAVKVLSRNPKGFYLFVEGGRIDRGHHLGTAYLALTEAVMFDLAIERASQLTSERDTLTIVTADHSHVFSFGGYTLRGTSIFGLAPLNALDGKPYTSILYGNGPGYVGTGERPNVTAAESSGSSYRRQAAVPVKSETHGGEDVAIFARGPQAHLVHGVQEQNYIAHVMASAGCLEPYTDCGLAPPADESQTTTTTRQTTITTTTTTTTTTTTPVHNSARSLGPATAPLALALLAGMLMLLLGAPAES
Chain of Mucolipin-3 (Q8TDD5 whole entry): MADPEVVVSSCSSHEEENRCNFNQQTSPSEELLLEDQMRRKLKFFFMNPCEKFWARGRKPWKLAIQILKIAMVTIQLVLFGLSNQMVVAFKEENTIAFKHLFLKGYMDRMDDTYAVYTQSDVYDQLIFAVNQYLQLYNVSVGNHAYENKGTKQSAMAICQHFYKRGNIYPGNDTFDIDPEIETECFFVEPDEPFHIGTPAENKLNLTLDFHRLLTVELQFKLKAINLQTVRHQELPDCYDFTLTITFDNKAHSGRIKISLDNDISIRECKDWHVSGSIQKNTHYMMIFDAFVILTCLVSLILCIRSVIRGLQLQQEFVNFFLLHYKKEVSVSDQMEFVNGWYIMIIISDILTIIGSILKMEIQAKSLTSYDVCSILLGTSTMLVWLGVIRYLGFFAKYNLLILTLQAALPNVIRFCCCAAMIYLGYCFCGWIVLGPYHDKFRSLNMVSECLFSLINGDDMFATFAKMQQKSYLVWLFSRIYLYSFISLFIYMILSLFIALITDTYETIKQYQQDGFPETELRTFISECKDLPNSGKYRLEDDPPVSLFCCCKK
Chain of DNA dC->dU-editing enzyme APOBEC-3A (P31941 whole entry): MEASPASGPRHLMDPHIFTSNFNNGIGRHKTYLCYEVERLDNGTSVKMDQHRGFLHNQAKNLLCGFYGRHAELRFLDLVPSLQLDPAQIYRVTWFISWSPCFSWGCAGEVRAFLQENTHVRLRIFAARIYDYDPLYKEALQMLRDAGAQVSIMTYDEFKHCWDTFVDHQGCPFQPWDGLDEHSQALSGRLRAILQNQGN
Chain of Intestinal-type alkaline phosphatase (Homo sapiens, UniProt P09923) (P09923 whole entry): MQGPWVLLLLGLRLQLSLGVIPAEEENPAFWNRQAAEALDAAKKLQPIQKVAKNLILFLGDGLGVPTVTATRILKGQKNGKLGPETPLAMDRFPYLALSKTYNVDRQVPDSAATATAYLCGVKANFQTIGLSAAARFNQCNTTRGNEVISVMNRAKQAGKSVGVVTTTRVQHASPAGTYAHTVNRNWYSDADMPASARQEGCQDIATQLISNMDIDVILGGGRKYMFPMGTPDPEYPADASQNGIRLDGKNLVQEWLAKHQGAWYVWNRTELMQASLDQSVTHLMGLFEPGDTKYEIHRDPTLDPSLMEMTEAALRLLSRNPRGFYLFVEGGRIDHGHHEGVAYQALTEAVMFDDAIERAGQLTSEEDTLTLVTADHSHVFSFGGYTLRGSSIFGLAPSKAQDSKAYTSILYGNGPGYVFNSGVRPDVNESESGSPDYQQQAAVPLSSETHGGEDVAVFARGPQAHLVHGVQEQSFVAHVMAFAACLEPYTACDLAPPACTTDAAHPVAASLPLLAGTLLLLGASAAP
Chain of Glucose-6-phosphate 1-dehydrogenase (P11413 whole entry): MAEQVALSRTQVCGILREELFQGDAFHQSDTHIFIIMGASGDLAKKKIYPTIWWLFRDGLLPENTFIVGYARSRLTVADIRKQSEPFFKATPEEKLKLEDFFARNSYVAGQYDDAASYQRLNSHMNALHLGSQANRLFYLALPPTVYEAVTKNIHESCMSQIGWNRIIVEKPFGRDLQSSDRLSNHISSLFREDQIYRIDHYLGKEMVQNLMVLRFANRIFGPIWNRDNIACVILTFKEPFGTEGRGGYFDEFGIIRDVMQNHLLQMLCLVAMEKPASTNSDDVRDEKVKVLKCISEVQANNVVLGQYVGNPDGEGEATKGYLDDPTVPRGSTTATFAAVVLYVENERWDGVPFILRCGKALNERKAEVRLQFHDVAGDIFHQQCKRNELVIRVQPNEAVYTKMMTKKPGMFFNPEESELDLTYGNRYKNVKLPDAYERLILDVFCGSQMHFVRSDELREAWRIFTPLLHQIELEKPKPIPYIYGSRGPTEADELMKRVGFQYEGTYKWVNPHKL
Chain of DNA dC->dU-editing enzyme APOBEC-3G (Q9HC16 whole entry): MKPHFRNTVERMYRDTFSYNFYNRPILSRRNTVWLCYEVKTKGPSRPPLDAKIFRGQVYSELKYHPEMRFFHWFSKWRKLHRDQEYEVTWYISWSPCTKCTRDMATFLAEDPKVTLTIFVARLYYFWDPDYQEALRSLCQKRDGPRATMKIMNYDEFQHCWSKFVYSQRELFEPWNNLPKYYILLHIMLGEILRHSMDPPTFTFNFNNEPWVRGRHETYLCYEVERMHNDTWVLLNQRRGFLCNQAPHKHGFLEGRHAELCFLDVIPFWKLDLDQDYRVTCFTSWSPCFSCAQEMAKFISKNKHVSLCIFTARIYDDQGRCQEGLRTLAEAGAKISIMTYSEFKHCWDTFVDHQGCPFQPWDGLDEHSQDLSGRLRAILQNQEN

For the compound `Cc1ccc([N+](=O)[O-])cc1NC(=O)Nc1cccc(F)c1`, the EC50 is > 29.9 µM (inactive) at Ion channel NompC and > 29.9 µM (not active) on Mucolipin-3. In addition, the concentration at half-maximal activity (AC50) in experiment [1] was 2.21 µM (active); in experiment [2], 7.82 µM (active); in experiment [3], 2.13 µM (active).

Consider `Cc1ccc(-n2c(N)c(C(=O)N3CCN(C)CC3)sc2=S)cc1`, for which the 50% inhibitory concentration (IC50) in [4] was > 158 µM (not active); in [5], 0.25 µM (active); in experiment [6] it was 0.402 µM (active); in experiment [7], 0.0144 µM (active); in experiment [8] it was 0.455 µM (active); in [9], > 80 µM (inactive). Besides, the IC50 in experiment [10] is > 100 µM (inactive); in experiment [11], > 99 µM (inactive); in [12], > 100 µM (inactive); in experiment [14] it was 5.73 µM (active); in experiment [15], 2.33 µM (active); in experiment [16] it was > 99 µM (inactive). In addition, the IC50 in [19] is 7.99 µM (active). Besides, the EC50 in experiment [13], in [17] and in experiment [18] was > 79.4 µM (not active) each time.

As for `CC(C)Oc1ccc(S(=O)(=O)N2CCOCC2)cc1NC(=O)c1cc2ccccc2s1`, the EC50 (at Cannabinoid receptor 2 [20]; in [22]; on Cannabinoid receptor 1 [24]; in experiment [25]) was > 32 µM (inactive) each time. Also, the IC50 (in [21]; at Cannabinoid receptor 1 [23]; at Cannabinoid receptor 2 [26]) was > 32 µM (inactive) each time.

Take `CN(CC(=O)Nc1cccc(Cl)c1)S(=O)(=O)c1ccc2[nH]c(=O)oc2c1`: the figures for the IC50 in [27] and in experiment [29] were 9.88 µM (active) and 7.87 µM (active), respectively. The EC50 in experiment [28] is > 100 µM (inactive).

As for `C=CCN1C(=O)c2ccccc2NC1c1cc(Br)cs1` (stereo not given), the EC50 at Troponin, cardiac muscle is > 71.5 µM (inactive).

Take `FC(F)(F)c1cc(CSc2nnc(-c3ccncc3)n2Cc2ccco2)ccc1Cl`: the EC50 in experiment [30] is > 20 µM (inactive).

Consider `CC12CCC(C(=O)N/N=C/c3ccc(O)cc3O)(OC1=O)C2(C)C` (stereo not given), for which the EC50 on Hexokinase HKDC1 and on Hexokinase-1 was > 80 µM (inactive) in each case.

In general, EC50 refers to the concentration giving half of the maximal effect. As a reminder, the AC50 is the concentration at which the activity in the assay is half-maximal. By IC50 is commonly meant the concentration that inhibits the measured activity by half.
